# In patent publication US20250353873A1, “COMPOUNDS AND METHODS FOR MODULATING APOE EXPRESSION” (Ionis Pharmaceuticals, Inc., priority 2024, published 2025):
# Strand notation (5' to 3'): a small letter for the sugar, then the base; units joined by * are phosphorothioate-linked, units joined directly phosphodiester-linked; [ ] holds rarer units or linkages, { } end groups; capitals alone tell only the bases. [ms] = mesyl phosphoramidate linkage; e = 2'-O-(2-methoxyethyl) (MOE); k = constrained ethyl (cEt); [5mC] = 5-methylcytosine; d = 2'-deoxy (DNA)
# How the values were obtained:
# [1] = test system: human APOE RNA; experiment: Dose-dependent reduction of human APOE RNA in HepG2 cells, electroporation, 20,000 cells per well, average of GAPDH- and PPIA-normalized results (Example 4, Table 12); assay type: cell-based; conditions: HepG2, 20,000 cells per well; for IC50: approximately 24 hours
# Method: HepG2 cells plated at a density of 20,000 cells per well were treated by electroporation with various concentrations of modified oligonucleotide as specified in the tables below. […] APOE RNA levels were measured using the human primer probe set RTS3073 (described herein above). APOE RNA levels were normalized to human GAPDH, and human PPIA. Human GAPDH was amplified using human primer probe set RTS104 (described herein above). Human PPIA was amplified using human primer probe set mk_cycloA_2nd (described herein above) The average of the GAPDH-normalized results and the PPIA-normalized results are presented in the table below as percent APOE RNA, relative to the amount of APOE RNA in untreated control cells (% UTC). The half maximal inhibitory concentration (IC50) of each modified oligonucleotide was calculated in GraphPad Prism 10 (GraphPad Software, San Diego, CA) and is also presented in the table below.
# [2] = test system: human APOE RNA; experiment: Activity in APOE C57BL/6NTac-Apoeem7250 knock-in mice, single ICV bolus, 16 weeks (Example 12); assay type: in vivo; conditions: single ICV bolus 300 μg, 16 weeks post treatment, normalized to mouse Ppia
# In short: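 A single 300 μg intracerebroventricular dose was given, with PBS-treated mice as reference; cortical and spinal cord tissue was taken 16 weeks later. RT-qPCR quantified human APOE RNA, Ppia-normalized, expressed relative to PBS animals (% control).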
# [3] = test system: human APOE RNA; experiment: Potency (dose response, ED50) in APOE C57BL/6NTac-Apoeem7250 knock-in mice, 4 weeks (Example 14); assay type: in vivo; conditions: for ED 50 (μg) Cortex / ED 50 (μg) Spinal Cord: single ICV bolus, GraphPad Prism 10
# Method: Modified oligonucleotides described above were tested in the APOE C57BL/6NTac-Apoeem7250 knock-in mouse model described above.
# APOE C57BL/6NTac-Apoeem7250 knock-in mice were divided into groups of 3-4 mice each. A group of 3-4 mice received a single ICV bolus with PBS as a negative control.
# Four weeks post treatment, mice were sacrificed, and RNA was extracted from cortical brain tissue and spinal cord for quantitative real-time RT-PCR analysis of RNA expression of […] using human primer probe set RTS3073 (described herein above). APOE RNA levels were normalized to mouse Ppia. Mouse Ppia was amplified using primer probe set m_cyclo24 (described herein above). Results are presented as percent human APOE RNA relative to the amount of APOE RNA in PBS treated animals, (% control). N.C. indicates values that were not calculated. Each experiment is identified in separate tables below.
# The half maximal effective dose (ED50) of each modified oligonucleotide was calculated using GraphPad Prism 10 software (GraphPad Software, San Diego, CA).
# [4] = test system: human APOE RNA; experiment: Duration of action study in APOE C57BL/6NTac-Apoeem7250 knock-in mice (Example 16); assay type: in vivo; conditions: 300 μg ICV
# In short: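 Knock-in mice (2-4 per group) received a single ICV bolus of 300 μg oligonucleotide or PBS. At various timepoints, cortex and spinal cord human APOE RNA was measured by RT-qPCR (RTS3073), normalized to mouse Ppia and expressed as % of PBS control.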
Substance,APOE RNA (% UTC) ([1]; 5 nM),APOE RNA (% UTC) ([1]; 13 nM),APOE RNA (% UTC) ([1]; 33 nM),APOE RNA (% UTC) ([1]; 82 nM),APOE RNA (% UTC) ([1]; 205 nM),APOE RNA (% UTC) ([1]; 512 nM),"APOE RNA (% UTC) ([1]; 1,280 nM)","APOE RNA (% UTC) ([1]; 3,200 nM)","APOE RNA (% UTC) ([1]; 8,000 nM)","APOE RNA (% UTC) ([1]; 20,000 nM)",IC50 [1],APOE RNA (% control) Cortex ([3]; ICV dose 10 μg),APOE RNA (% control) Cortex ([3]; ICV dose 30 μg),APOE RNA (% control) Cortex ([3]; ICV dose 100 μg),APOE RNA (% control) Cortex ([3]; ICV dose 300 μg),APOE RNA (% control) Cortex ([3]; ICV dose 700 μg),ED 50 (μg) Cortex [3],APOE RNA (% control) Spinal Cord ([3]; ICV dose 10 μg),APOE RNA (% control) Spinal Cord ([3]; ICV dose 30 μg),APOE RNA (% control) Spinal Cord ([3]; ICV dose 100 μg),other results
1785598: modified oligonucleotide complementary to human APOE RNA (k[5mC]*kT*kT*dG[ms]dG[ms]dT[ms]dG[ms]dA[ms]dA[ms]dT*d[5mC]*dT*dT*dT*dA*dT[ms]kT*kA*dA[ms]kA; antisense) [compound 1785598],103 % UTC,97 % UTC,88 % UTC,75 % UTC,56 % UTC,36 % UTC,23 % UTC,9 % UTC,11 % UTC,11 % UTC,290 nM,104 % control,84 % control,60 % control,37 % control,23 % control,175.4 µg,97 % control,70 % control,65 % control,APOE RNA (% control) Cortex [2]: 36 % control; APOE RNA (% control) Spinal Cord [2]: 24 % control; APOE RNA (% control) Spinal Cord ([3]; ICV dose 300 μg): 60 % control; APOE RNA (% control) Spinal Cord ([3]; ICV dose 700 μg): 41 % control; ED 50 (μg) Spinal Cord [3]: 416.7 µg
1757575 (eA*e[5mC]eTeT*kG*kG*dT*dG[ms]dA[ms]dA[ms]dT*d[5mC]*dT*dT*dT*dA[ms]kT*eT*eA*eA; antisense) [Compound 1757575],92 % UTC,96 % UTC,93 % UTC,81 % UTC,72 % UTC,47 % UTC,34 % UTC,27 % UTC,10 % UTC,5 % UTC,570 nM,100 % control,82 % control,88 % control,51 % control,30 % control,337.5 µg,82 % control,48 % control,40 % control,APOE RNA (% control) Cortex [2]: 33 % control; APOE RNA (% control) Spinal Cord [2]: 21 % control; APOE RNA (% control) Spinal Cord ([3]; ICV dose 300 μg): 28 % control; APOE RNA (% control) Spinal Cord ([3]; ICV dose 700 μg): 51 % control; ED 50 (μg) Spinal Cord [3]: 84.6 µg
1778131: modified oligonucleotide complementary to human APOE RNA (eA*e[5mC]eTeTeGkG*dT*dG[ms]dA[ms]dA*dT*d[5mC]*dT*dT*dT*dA[ms]kTkT*eA*eA; antisense) [compound 1778131],102 % UTC,86 % UTC,85 % UTC,70 % UTC,56 % UTC,36 % UTC,25 % UTC,25 % UTC,5 % UTC,6 % UTC,290 nM,115 % control,105 % control,61 % control,37 % control,29 % control,216.5 µg,79 % control,64 % control,36 % control,APOE RNA (% control) Cortex [2]: 34 % control; APOE RNA (% control) Spinal Cord [2]: 17 % control; APOE RNA (% control) Spinal Cord ([3]; ICV dose 300 μg): 40 % control; APOE RNA (% control) Spinal Cord ([3]; ICV dose 700 μg): 34 % control; ED 50 (μg) Spinal Cord [3]: 94.0 µg
1746809 (k[5mC]*dT[ms]kT*dG[ms]kG*dT[ms]dG[ms]dA[ms]dA[ms]dT*d[5mC]*dT*dT*dT*dA[ms]dT*dT[ms]kA*kA*kA; antisense) [Compound 1746809],97 % UTC,94 % UTC,86 % UTC,72 % UTC,59 % UTC,34 % UTC,28 % UTC,11 % UTC,15 % UTC,10 % UTC,310 nM,98 % control,89 % control,79 % control,57 % control,41 % control,446.6 µg,105 % control,92 % control,59 % control,APOE RNA (% control) Spinal Cord ([3]; ICV dose 300 μg): 48 % control; APOE RNA (% control) Spinal Cord ([3]; ICV dose 700 μg): 64 % control; ED 50 (μg) Spinal Cord [3]: 652.7 µg; APOE RNA (% control) Cortex ([4]; 112 days post-dose): 55 % control; APOE RNA (% control) Cortex ([4]; 140 days post-dose): 66 % control; APOE RNA (% control) Spinal Cord ([4]; 112 days post-dose): 86 % control; APOE RNA (% control) Spinal Cord ([4]; 140 days post-dose): 107 % control
